Test results reported in US7687079B2, “Methods of treating ileus” (priority 2002, dated 2010).

What was measured:
[1] = system: rats that underwent small bowel transplantation; experiment: intestinal transit of orally fed fluorescein-labeled dextran after SITx; type: in vivo, rat; conditions: for distribution of fluorescent label along the gastrointestinal tract: 2 hours after oral feeding
Method: To determine whether CO is protective against ileus associated with small bowel transplantation, orthotopic SITx was performed in syngenic Lewis rats. SITx with caval drainage was performed using a previously described procedure. […] The graft was perfused via the aortic segment with 5 ml chilled Ringer's lactate solution, and the intestinal lumen was irrigated with 20 ml of cold saline solution containing 0.5% neomycin-sulfate (Sigma, St. Louis, Mo.). End-to-side anastomoses between the graft aorta and the recipient infrarenal aorta, and between the graft portal vein and recipient vena cava, were performed with 10-0 Novafil™ suture. The cold ischemic time was 1 hour. The entire recipient intestine was removed and the enteric continuity was restored by proximal and distal end-to-end intestinal anastomoses. Recipient animals were given 20 mg/day prophylactic cefamandole nafate for 3 postoperative days. Transplanted recipients were given water 3 hours after surgery, and were fed 24 hours after surgery.
Four groups of animals were examined in this study, two of which received a SITx. Group 1 consisted of unoperated normal rats. Group 2 animals were exposed to CO with no surgery. In Group 3, syngeneic SITx were performed and the recipients kept in room air. Group 4 consisted of SITx recipients that were placed in the CO chamber for 1 hour before surgery and then re-exposed to CO immediately following surgery until sacrificed. In both Groups 3 and 4, normal LEW rats served as donors.
The animals were exposed to CO at a concentration of 250 ppm. Briefly, 1% CO in air was mixed with air (21% oxygen) in a stainless steel mixing cylinder and then directed into a 3.70 ft^3 glass exposure chamber at a flow rate of 12 L/min. A CO analyzer (Interscan, Chatsworth, Calif.) was used to measure CO levels continuously in the chamber. CO concentrations were maintained at 250 ppm at all times. The animals were supplied food and water during the exposures.
Intestinal transit was measured in controls and manipulated animals 48 hours postoperatively by evaluating the intestinal distribution of fluorescein-labeled dextran (Molecular Probes). Animals were lightly sedated with inhaled isofluran and fed orally with labeled dextran (200 μl of 6 mg/ml in saline). Two hours after administration, the animal was sacrificed and the entire bowel from stomach to distal colon was collected. […] After pelleting the intestinal tissue and chyme, aliquots of the supernatant were read in duplicate on a plate reader (CytoFluor II; excitation wavelength 530 nm and emission 590 nm) for quantification of the fluorescent signal in each bowel segment. […] Intestinal transit was determined for statistical analysis by calculating the geometric center (GC).

iNOS mRNA = iNOS mRNA in muscularis after IM (real time RT-PCR); type: in vivo, mouse; conditions: for iNOS expression, fold increase: naive mice
Method: (§1) Pro- and anti-inflammatory gene expression was determined by real time RT-PCR. The small intestinal muscularis externa was collected at 4 time points (3, 6, 12, and 24 hr) postoperatively and snap frozen in liquid nitrogen. Total RNA extraction was performed using the guanidium-thiocyanate phenol-chloroform extraction method as described in Eskandari et al. (Id.) RNA pellets were resuspended in RNA-secure resuspension solution (Ambion Inc., Austin, Tex.), followed by removal of potential contaminating DNA by treatment with DNase I (DNA-Free Kit, Ambion Inc., Austin, Tex.). Equal aliquots (5 μg) of total RNA from each sample were quantified by spectrophotometry (wavelength […]). Peak mRNA expression was quantified in duplicate by SYBR Green two-step, real-time RT-PCR. β-actin was used as the endogenous reference. Aliquoted RNA (40 ng) was subjected to first-strand complementary DNA (cDNA) synthesis using random hexamers (PE applied Biosystems, Foster City, Calif.) and Super Script II (Life Technologies, Rockville, Md.). Primers were taken from the literature or designed according to published sequences (Table 3). PCR reaction mixture was prepared using SYBR Green PCR Core Reagents (PE Applied Biosystems). Each sample was estimated in duplicate using the conditions recommended by the manufacturer. Real-time PCR data were plotted as the ΔRn fluorescence signal versus the cycle number. An arbitrary threshold was set to the midlinear portion of the log ΔRn cycle plot. The threshold cycle (CT) is defined as the cycle number at which the ΔRn, crosses this threshold. Quantification of mRNA expression was normalized to β-actin and calculated relative to control using the comparative CT method.
(§2) To exclude PCR amplification of contaminating genomic DNA, RT-negative controls (samples containing RNA which was not reverse transcribed) were included in each PCR reaction. Melting curve analyses were performed for each reaction to ensure amplification of specific product. […] PCR amplification efficiency of each target cDNA was measured by determining the colinearity of serial dilutions. […]

HO-1 mRNA = experiment: Example 3 HO-1 mRNA by SYBR green real time RT-PCR; type: in vivo, mouse; conditions: IM-CO mice
Method: Ileus was induced in mice by gentle manipulation of the small intestine. An incision was made to expose the abdominal cavity of the mouse, and bowel manipulation was performed by gentle poking and prodding of the small intestine (see, e.g., Schwarz et al., Gastroenterology 121(6):1354-1357 (2001)). […] Mice were exposed to CO by inhalation (250 and 500 ppm) for 1 hour immediately prior to intestinal manipulation and during the entire 24-hour recovery period. Intestinal contractility was assessed in vitro by measuring circular muscle strip contractions in response to bethanechol (0.3-300 μM) and in vivo by determining intestinal transit from the distribution of orally-fed, fluorescein-labeled dextran and calculating geometric center as described in Example 1 above. HO-1 and IL-10 mRNA expression were determined by SYBR green real time RT-PCR from extracts of muscularis extemae, as described in Example 1 above. Release of nitric oxide (NO), a potent inhibitor of smooth muscle contractility, was estimated by measuring serum total nitrite, also described in Example 1 above.

IL-6 mRNA = IL-6 mRNA in muscularis after IM (real time RT-PCR); type: in vivo, mouse; conditions: IM + CO, 3 and 6 hr time points
Method: Pro- and anti-inflammatory gene expression was determined by real time RT-PCR. The small intestinal muscularis externa was collected at 4 time points (3, 6, 12, and 24 hr) postoperatively and snap frozen in liquid nitrogen. Total RNA extraction was performed using the guanidium-thiocyanate phenol-chloroform extraction method as described in Eskandari et al. (Id.) RNA pellets were resuspended in RNA-secure resuspension solution (Ambion Inc., Austin, Tex.), followed by removal of potential contaminating DNA by treatment with DNase I (DNA-Free Kit, Ambion Inc., Austin, Tex.). Equal aliquots (5 μg) of total RNA from each sample were quantified by spectrophotometry (wavelength […]). Peak mRNA expression was quantified in duplicate by SYBR Green two-step, real-time RT-PCR. β-actin was used as the endogenous reference. […] Real-time PCR data were plotted as the ΔRn fluorescence signal versus the cycle number. […] Quantification of mRNA expression was normalized to β-actin and calculated relative to control using the comparative CT method.
To exclude PCR amplification of contaminating genomic DNA, RT-negative controls (samples containing RNA which was not reverse transcribed) were included in each PCR reaction. […] PCR amplification efficiency of each target cDNA was measured by determining the colinearity of serial dilutions. […]

COX-2 mRNA = COX-2 mRNA in muscularis after IM (real time RT-PCR); type: in vivo, mouse
Method: as §1, §2

In the case of [C-]#[O+] [CO, carbon monoxide], the intestinal transit ([1]; SITx + CO, Table 2) is reported as “normal”, the “intestinal transit (Geometric Center)” value ([1]; SITx rats, inhaled CO 250 ppm, 48 hours postoperatively) is reported as “significantly improved” and the “distribution of fluorescent label along the gastrointestinal tract” value ([1]; transplanted animals treated with CO) is reported as “small bowel segments 6, 7 and 8”. The “distribution of fluorescent label along the gastrointestinal tract” value ([1]; unoperated control rats treated with CO) was “small bowel segments 9 and 10, and in the cecum”, the iNOS expression (iNOS mRNA; naive mice exposed to CO) was “no effect” and the “iNOS expression, fold increase” value (iNOS mRNA; CO 3 hr) was 1.04±0.19 fold. The “iNOS expression, fold increase” value (iNOS mRNA; CO 6 hr) was 1.26±0.19 fold, the “HO-1 expression versus controls” value (HO-1 mRNA) was 150 fold and the “HO-1 increase in expression over IM alone” value (HO-1 mRNA; early induction) was 300%. The “manipulation-induced IL-6 gene expression” value (IL-6 mRNA) was “no effect”, the “IM-induced COX-2 gene expression” value (COX-2 mRNA; IM + CO, 3 or 6 hr time points) was “no effect” and the “COX-2 mRNA expression” value (COX-2 mRNA; control animals, CO inhalation, 3 hr post-treatment) was “significantly increased”. The “induction of COX-2 message” value (COX-2 mRNA; unoperated control mice, CO inhalation alone, 3 hr) was 2.5 fold.
